Measured values as given in patent US20100144819A1, “Synergistic Methods for Control of Pests” (FMC A[…]. LTD., priority 2008, published 2010).

What was measured:
[1] = system: black house spider (Badumna insignis); experiment: Black house spider mortality on treated pine plywood; format: in vivo; settings: suspension concentrate diluted in water, 24 h
Text: (§1) The presence of a synergistic effect between the two active ingredients is established with the aid of the Colby equation (see Colby, S. R., “Calculating Synergistic and Antagonistic Responses of Herbicide Combinations”, Weeds 1967, 15, pg 20-22): E=X+Y−(XY/100).
(§2) Using the method of Colby, the presence of asynergistic interaction between two active ingredients is established by first calculating the expected activity, ‘E’, of the mixture based on activities of the two components applied alone. If ‘E’ is lower than the observed activity, synergy is present. In the equation above, ‘X’ is the percentage control observed when bifenthrin applied alone at rate ‘x’. The ‘Y’ term is percentage control observed when fipronil applied alone at rate ‘y’. The equation calculates ‘E’, the expected activity of the mixture of ‘X’ at rate ‘x’ with ‘Y’ at rate ‘y’ if their effects are strictly additive and no interaction has occurred.
The compositions of the present invention were tested for black house spider (Badumna insignis) activity in the following manner:
Formulations of the test compounds were made as follows: • 1).
The testing was conducted on pine plywood surfaces that had dimensions of 20 cm×20 cm. The above formulations were diluted in water to achieve the desired concentration rate in grams of active ingredient per liter prior to application to the pine plywood. Each treatment was applied using an airbrush sprayer and compressed air as the propellant. The equipment was calibrated prior to use and the treatments were applied to the pine plywood surfaces at a rate of 1 L/10 m^2 (4 mL of final test solution per 20 cm×20 cm pine plywood surface)'. For example, in order to obtain a application rate of […] of active ingredient per 10 m^2, 1.25 mL of the fipronil formulation 1) which contained 100 gram per liter suspension concentrate formulation of fipronil, was diluted in 1 liter of water to make a final test solution. Four mL of the final test solution was sprayed onto the pine plywood surface. The treated pine plywood was allowed to air dry at ambient temperature by storing horizontally away from direct sunlight. Three black house spiders, medium to large in size collected from the field 1 to 2 days prior to testing, were placed separately under untreated portion cups (7 cm diameter by 7 cm deep) on the treated pine plywood surfaces. The untreated portion cups provided an opportunity for the spiders to seek an untreated area. The spiders were assessed after 24 hours exposure by counting the number of alive and the number of knocked down/dead spiders. There were three replications of each treatment.

[2] = system: American cockroach (Periplaneta americana); experiment: American cockroach mortality on treated filter paper; format: in vivo; settings: 24 h
Text: as §1, §2
The compositions of the present invention were tested for American cockroach (Periplaneta americana) activity in the following manner:
Test solutions were made by dissolving technical grade bifenthrin and fipronil in acetone to provide appropriate rates of application of bifenthrin and fipronil alone, as well as combinations of bifenthrin and fipronil. The active ingredient concentrations tested were from 10 part per million (0.01 mg of active ingredient/mL or 0.01 g/L) to 1000 parts per million (1.0 mg of active ingredient/mL or 1.0 g/L), four replicates per rate. In a fume cabinet, one milliliter of a test solution was applied to a 9 cm Whatman® 2 qualitative filter paper using a calibrated pipette. The application started at the center of the filter paper with individual drops being applied in an outward circular motion so that the entire filter paper was uniformly treated. Acetone only (one mL) was applied in the same manner to provide an untreated control (UTC). The treated filter papers were allowed to dry for two hours. The dried, treated or untreated filter paper was placed into a plastic cup having a base diameter of 90 mm, in which the upper portion of the walls of the plastic cup were coated with a fluoropolymer resin (PFTE-30) insect barrier (Fluoron® available from BioQuip Products Inc.) to prevent the insects from climbing out of the container. Ten late instar, healthy and active American cockroaches (Periplaneta americana) were momentarily immobilized using carbon dioxide and then placed onto the filter paper. The top of the plastic containers were covered with gauze to contain the cockroaches. The plastic containers were maintained at a temperature of 25° C. to 30° C. at ambient relative humidity out of direct sunlight. American cockroach mortality was assessed after 24 hours by counting the number of alive and the number of knocked down/dead cockroaches.
In order to compare the pesticidal effectiveness of the individual and combination treatments the LC 50 and LC 90 values (lethal concentration in ppm that would effectively knock down/kill 50% or 90% of the test pests) were calculated. In calculating the LC values for the various mixtures of bifenthrin and fipronil, probit analysis was conducted on the bifenthrin in concentration of the mixture. […] The values calculated from the data of Table 2 are in Table 2A below.

[3] = probit analysis of Table 2 data, mixtures as bifenthrin:fipronil

Question: How did the “Observed % Control” value ([1]; 0.125 g ai/L at 1 L/10 m^2) turn out when `N#Cc1nn(-c2c(Cl)cc(C(F)(F)F)cc2Cl)c(N)c1[S+]([O-])C(F)(F)F` [Fipronil, (5-amino-[2,6-dichloro-4(trifluoromethyl)phenyl]-4-[(1R,S)-(trifluoromethyl)sulfinyl]-1H-pyrazole-3-carbonitrile] was run?
Answer: Its value is 0.0%.

Question: And the “Observed % Control” value ([1]; 0.25 g ai/L at 1 L/10 m^2)?
Answer: The value was 0.0%.

Question: And the “Observed % Control” value ([1]; 0.5 g ai/L at 1 L/10 m^2)?
Answer: Its value is 0.0%.

Question: And the “% Observed Control” value ([2]; 10 ppm (0.01 mg/mL))?
Answer: Its value is 0%.

Question: And the “Mortality Rep 1 dead/alive” value ([2]; 10 ppm (0.01 mg/mL))?
Answer: The value was 0/10.

Question: And the “Mortality Rep 2 dead/alive” value ([2]; 10 ppm (0.01 mg/mL))?
Answer: The value was 0/10.

Question: What about the “Mortality Rep 3 dead/alive” value ([2]; 10 ppm (0.01 mg/mL)) of the same compound?
Answer: Its value is 0/10.

Question: What about the “Mortality Rep 4 dead/alive” value ([2]; 10 ppm (0.01 mg/mL)) of the same compound?
Answer: The value was 0/10.

Question: What about the “% Observed Control” value ([2]; 20 ppm (0.02 mg/mL)) of the same compound?
Answer: Its value is 0%.

Question: What about the “Mortality Rep 1 dead/alive” value ([2]; 20 ppm (0.02 mg/mL)) of the same compound?
Answer: The value was 0/10.

Question: And the “Mortality Rep 2 dead/alive” value ([2]; 20 ppm (0.02 mg/mL))?
Answer: Its value is 0/10.

Question: And the “Mortality Rep 3 dead/alive” value ([2]; 20 ppm (0.02 mg/mL))?
Answer: Its value is 0/10.

Question: And the “Mortality Rep 4 dead/alive” value ([2]; 20 ppm (0.02 mg/mL))?
Answer: Its value is 0/10.

Question: And the “% Observed Control” value ([2]; 25 ppm (0.025 mg/mL))?
Answer: The value was 0%.

Question: What about the “Mortality Rep 1 dead/alive” value ([2]; 25 ppm (0.025 mg/mL)) of the same compound?
Answer: Its value is 0/10.

Question: And the “Mortality Rep 2 dead/alive” value ([2]; 25 ppm (0.025 mg/mL))?
Answer: The value was 0/10.

Question: And the “Mortality Rep 3 dead/alive” value ([2]; 25 ppm (0.025 mg/mL))?
Answer: Its value is 0/10.

Question: And the “Mortality Rep 4 dead/alive” value ([2]; 25 ppm (0.025 mg/mL))?
Answer: The value was 0/10.

Question: And the “% Observed Control” value ([2]; 50 ppm (0.05 mg/mL))?
Answer: Its value is 0%.

Question: And the “Mortality Rep 1 dead/alive” value ([2]; 50 ppm (0.05 mg/mL))?
Answer: Its value is 0/10.

Question: What about the “Mortality Rep 2 dead/alive” value ([2]; 50 ppm (0.05 mg/mL)) of the same compound?
Answer: Its value is 0/10.

Question: And the “Mortality Rep 3 dead/alive” value ([2]; 50 ppm (0.05 mg/mL))?
Answer: The value was 0/10.

Question: What about the “Mortality Rep 4 dead/alive” value ([2]; 50 ppm (0.05 mg/mL)) of the same compound?
Answer: Its value is 0/10.

Question: And the “% Observed Control” value ([2]; 100 ppm (0.1 mg/mL))?
Answer: Its value is 2.5%.

Question: And the “Mortality Rep 1 dead/alive” value ([2]; 100 ppm (0.1 mg/mL))?
Answer: Its value is 0/10.

Question: What about the “Mortality Rep 2 dead/alive” value ([2]; 100 ppm (0.1 mg/mL)) of the same compound?
Answer: Its value is 0/10.

Question: And the “Mortality Rep 3 dead/alive” value ([2]; 100 ppm (0.1 mg/mL))?
Answer: The value was 0/10.

Question: What about the “Mortality Rep 4 dead/alive” value ([2]; 100 ppm (0.1 mg/mL)) of the same compound?
Answer: Its value is 1/9.

Question: What about the “% Observed Control” value ([2]; 125 ppm (0.125 mg/mL)) of the same compound?
Answer: Its value is 2.5%.

Question: What about the “Mortality Rep 1 dead/alive” value ([2]; 125 ppm (0.125 mg/mL)) of the same compound?
Answer: Its value is 0/10.

Question: And the “Mortality Rep 2 dead/alive” value ([2]; 125 ppm (0.125 mg/mL))?
Answer: The value was 0/10.

Question: What about the “Mortality Rep 3 dead/alive” value ([2]; 125 ppm (0.125 mg/mL)) of the same compound?
Answer: Its value is 0/10.

Question: And the “Mortality Rep 4 dead/alive” value ([2]; 125 ppm (0.125 mg/mL))?
Answer: Its value is 1/9.

Question: What about the “% Observed Control” value ([2]; 200 ppm (0.2 mg/mL)) of the same compound?
Answer: Its value is 2.5%.

Question: What about the “Mortality Rep 1 dead/alive” value ([2]; 200 ppm (0.2 mg/mL)) of the same compound?
Answer: The value was 0/10.

Question: What about the “Mortality Rep 2 dead/alive” value ([2]; 200 ppm (0.2 mg/mL)) of the same compound?
Answer: Its value is 0/10.

Question: What about the “Mortality Rep 3 dead/alive” value ([2]; 200 ppm (0.2 mg/mL)) of the same compound?
Answer: Its value is 1/9.

Question: And the “Mortality Rep 4 dead/alive” value ([2]; 200 ppm (0.2 mg/mL))?
Answer: The value was 0/10.

Question: And the “% Observed Control” value ([2]; 250 ppm (0.25 mg/mL))?
Answer: The value was 45%.

Question: And the “Mortality Rep 1 dead/alive” value ([2]; 250 ppm (0.25 mg/mL))?
Answer: Its value is 0/10.

Question: And the “Mortality Rep 2 dead/alive” value ([2]; 250 ppm (0.25 mg/mL))?
Answer: Its value is 8/2.

Question: What about the “Mortality Rep 3 dead/alive” value ([2]; 250 ppm (0.25 mg/mL)) of the same compound?
Answer: The value was 7/3.

Question: And the “Mortality Rep 4 dead/alive” value ([2]; 250 ppm (0.25 mg/mL))?
Answer: Its value is 3/7.

Question: And the “% Observed Control” value ([2]; 500 ppm (0.5 mg/mL))?
Answer: The value was 45%.

Question: And the “Mortality Rep 1 dead/alive” value ([2]; 500 ppm (0.5 mg/mL))?
Answer: The value was 1/9.

Question: What about the “Mortality Rep 2 dead/alive” value ([2]; 500 ppm (0.5 mg/mL)) of the same compound?
Answer: Its value is 8/2.

Question: And the “Mortality Rep 3 dead/alive” value ([2]; 500 ppm (0.5 mg/mL))?
Answer: The value was 5/5.

Question: What about the “Mortality Rep 4 dead/alive” value ([2]; 500 ppm (0.5 mg/mL)) of the same compound?
Answer: The value was 4/6.

Question: What about the “LC 50” value [2, 3] of the same compound?
Answer: The value was 1013 ppm.

Question: What about the “LC 90” value [2, 3] of the same compound?
Answer: The value was 1742 ppm.
